Measurements as given in patent US4038401A, “Novel indole derivative” (John Wyeth & Brother Limited, priority 1976, dated 1977).
Where two headings read alike, the source gives them in different places.

How the values were obtained:
rats = assay type: in vivo, rat; conditions: for Duration of sedation: 50 mg/kg; for Increase in comparative sedation: oral 10, 25 or 50 mg/kg, perphenazine and haloperidol rated at 10
Procedure: Twelve rats of each type were split into […] and dosed orally with 10, 25 or 50 mg/kg of the test compound in a vehicle comprising hydroxymethylcellulose (0.5%) in (0.9% saline). Each rat was housed singly, after dosing and observed closely for 2 hours, then intermittently for a further four hours, behavioural changes being noted.
The animals were left at least 72 hours before re-dosing to ensure the disappearance of residual hypotensive and sedative effects.

[1] = test system: rats rendered hypertensive; test: Anti-hypertensive activity in renal hypertensive rats (systolic pressure); assay type: in vivo, rat; conditions: 12 rats
Procedure: Anti-hypertensive activity is determined by the following procedure:
Male or female rats are rendered hypertensive by applying a figure of 8 ligature around one kidney and contralateral nephrectomy. Blood pressure stabilises at a hypertensive level after 6 weeks. Systolic pressure is measured indirectly using an E and M Pneumatic Tail Pulse Transducer and a Devices M2 recorder. A control group of rats is run with each group reacted with drug. Each group usually consists of six rats. Drugs are usually administered by the IP or oral routes. Pressures are read prior to drug administration and at 2 and 24 hours thereafter.
Blood pressure is expressed as % of control values at x hours after an oral dose of 25 mg/kg. In the test 12 rats were used instead of the usual 6.

in vivo = conditions: mouse
laboratory animals = test: Toxicity and sedation, tests in laboratory animals (statement in words); conditions: compared with indoramin
[2] = Hypotensive and anti-hypertensive activity (statement in words); assay type: in vivo; conditions: compared with indoramin
[3] = 2 hours after oral dose of 25 mg/kg
[4] = 6 hours after oral dose of 25 mg/kg
[5] = 24 hours after oral dose of 25 mg/kg
[6] = normotensive rat (male and female)
[7] = renal hypertensive rat (female)
[8] = spontaneous hypertensive rat (male)

## OCCN1CCN(CCCN2c3ccccc3Sc3ccc(Cl)cc32)CC1 [perphenazine, reference compound]
rats; rat, in vivo
  Sedation rating of comparison tranquillisers: 10

## O=C(NC1CCN(CCc2c[nH]c3ccccc23)CC1)c1ccccc1 [Indoramin, 3-[2(4-benzamidopiperid-1-xl)ethyl] indole, reference compound]
[1]; [3]
  Blood pressure expressed as % of control values: 78.0 % of control values
[1]; [4]
  Blood pressure expressed as % of control values: 76.0 % of control values
[1]; [5]
  Blood pressure expressed as % of control values: 98.0 % of control values

## O=C(CCCN1CCC(O)(c2ccc(Cl)cc2)CC1)c1ccc(F)cc1 [haloperidol, reference compound]
rats; rats, reference rating of the scale
  Sedation rating of comparison tranquillisers: 10

## O=C(NC1CCN(CCCC(=O)c2c[nH]c3ccccc23)CC1)c1ccccc1 [4-Benzamido-1-[4-(indol-3-yl)-4-oxobutyl]piperidine]
In vivo; ip
  LD50: 542 mg/kg
  LD50 at 24 h: 1000 mg/kg
In vivo; po
  LD50: > 4000 mg/kg
  LD50 at 24 h: > 4000 mg/kg
Laboratory animals
  sedation: much less sedative
  toxicity: much less toxic
[1]; [3]
  Blood pressure expressed as % of control values: 60.9 % of control values
[1]; [4]
  Blood pressure expressed as % of control values: 62.0 % of control values
[1]; [5]
  Blood pressure expressed as % of control values: 99.0 % of control values
[2]
  hypotensive and anti-hypertensive activity: comparable to that of indoramin
rats; [6]
  Duration of sedation: 6 h
  Approximate sedative potency ratio: 1
rats; [7]
  Duration of sedation: 6 h
  Approximate sedative potency ratio: 1
rats; [8]
  Duration of sedation: 6 h
  Approximate sedative potency ratio: 1
rats; normotensive rats
  Increase in comparative sedation: 1
rats; renal hypertensive rats
  Increase in comparative sedation: 2
rats; spontaneously hypertensive rats
  Increase in comparative sedation: 1
